Like-named read-outs stand apart in the source and are kept apart here.
Experiments:
GSK3β [1] = target: T1, GSK3β (Homo sapiens, UniProt P49841); experiment: Z'-LYTE kinase assay, […] ATP, […] min preincubation (IC50 […] without preincubation); assay type: biochemical
T1 construct: gene GSK3B

GSK3β [2] = target: T1, GSK3β; experiment: as above; assay type: biochemical; remark: listed apart in the source

T1 sequence (P49841 whole entry): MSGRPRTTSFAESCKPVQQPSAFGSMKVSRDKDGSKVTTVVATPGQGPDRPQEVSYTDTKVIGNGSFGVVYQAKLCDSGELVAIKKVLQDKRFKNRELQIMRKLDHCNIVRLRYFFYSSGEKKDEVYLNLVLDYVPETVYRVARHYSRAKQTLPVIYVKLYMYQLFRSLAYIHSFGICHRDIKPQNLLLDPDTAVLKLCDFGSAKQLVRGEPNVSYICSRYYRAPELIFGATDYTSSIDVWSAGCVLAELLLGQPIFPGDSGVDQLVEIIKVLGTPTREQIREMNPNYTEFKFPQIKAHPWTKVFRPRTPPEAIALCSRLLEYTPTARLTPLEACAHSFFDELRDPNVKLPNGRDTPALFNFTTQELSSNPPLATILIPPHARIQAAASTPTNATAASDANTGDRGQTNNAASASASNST

Row | Structure (SMILES) | IC50 (GSK3β [1]) | IC50 (GSK3β [2])
1 | C=CC1=C(C(=O)O)N2C(=O)[C@@H](NC(=O)/C(=N\OCC(=O)O)c3csc(N)n3)[C@H]2SC1 [A, cefixime] | 550 nM | 
2 | CO/N=C(\C(=O)N[C@@H]1C(=O)N2C(C(=O)O)=C(CSc3nc(=O)c(=O)[nH]n3C)CS[C@H]12)c1csc(N)n1 [B, ceftriaxone] |  | 780 nM

Source: publication PMC10087387, “Molecular docking, molecular dynamics simulations and in vitro screening reveal cefixime and ceftriaxone as GSK3β covalent inhibitors” (RSC Advances, 2023)
